Converted amounts (≈) assume the structure as drawn.
How the values were obtained:
[1] = biological target: Prostaglandin E2 receptor EP2 subtype (Homo sapiens) (UniProt P43116); experiment: Antagonist activity at EP2 receptor (unknown origin) expressed in rat C6 cells assessed as inhibition of PGE2-induced response; type: cell-based
[2] = biological target: Prostaglandin E2 receptor EP4 subtype (Homo sapiens) (UniProt P35408); experiment: Antagonist activity at EP4 receptor (unknown origin) expressed in rat C6 cells assessed as inhibition of PGE2-induced response; type: cell-based
Sequence of Prostaglandin E2 receptor EP4 subtype (Homo sapiens) (P35408 whole entry): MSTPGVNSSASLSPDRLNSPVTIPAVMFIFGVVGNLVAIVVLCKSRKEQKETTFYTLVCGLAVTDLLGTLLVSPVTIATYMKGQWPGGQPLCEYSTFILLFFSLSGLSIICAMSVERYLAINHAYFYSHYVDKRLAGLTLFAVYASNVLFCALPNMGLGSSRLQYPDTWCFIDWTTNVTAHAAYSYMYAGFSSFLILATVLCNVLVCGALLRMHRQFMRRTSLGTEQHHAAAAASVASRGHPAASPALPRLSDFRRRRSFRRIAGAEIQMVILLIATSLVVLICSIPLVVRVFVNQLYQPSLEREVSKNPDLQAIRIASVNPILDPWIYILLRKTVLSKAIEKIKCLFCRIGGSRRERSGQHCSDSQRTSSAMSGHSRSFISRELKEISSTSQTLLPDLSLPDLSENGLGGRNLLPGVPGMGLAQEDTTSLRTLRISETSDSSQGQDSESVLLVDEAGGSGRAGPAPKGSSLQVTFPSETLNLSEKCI

Homo sapiens [3] = species: Homo sapiens; experiment: Selectivity index, ratio of KB for EP4 receptor (unknown origin) to KB for EP2 receptor (unknown origin)
[4] = biological target: T1, Prostaglandin D2 receptor (Homo sapiens) (UniProt Q13258); experiment: Antagonist activity at DP1 receptor (unknown origin) expressed in rat C6 cells by TR-FRET assay; type: cell-based
T1 sequence (whole entry): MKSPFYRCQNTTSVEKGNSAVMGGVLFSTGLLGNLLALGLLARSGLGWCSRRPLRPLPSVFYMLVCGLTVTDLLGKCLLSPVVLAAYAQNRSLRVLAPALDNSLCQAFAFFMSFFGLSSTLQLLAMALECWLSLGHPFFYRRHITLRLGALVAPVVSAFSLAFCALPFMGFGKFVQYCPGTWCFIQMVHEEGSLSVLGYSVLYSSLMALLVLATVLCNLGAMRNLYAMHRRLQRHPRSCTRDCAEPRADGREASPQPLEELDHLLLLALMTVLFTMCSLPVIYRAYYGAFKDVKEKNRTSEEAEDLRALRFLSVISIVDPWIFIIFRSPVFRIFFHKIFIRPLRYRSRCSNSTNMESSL

Homo sapiens [5] = species: Homo sapiens; experiment: Selectivity index, ratio of KB for DP1 receptor (unknown origin) to KB for EP2 receptor (unknown origin)
[6] = biological target: Prostacyclin receptor (Homo sapiens) (UniProt P43119); experiment: Antagonist activity at IP receptor (unknown origin) expressed in rat C6 cells by TR-FRET assay; type: cell-based
Sequence of Prostacyclin receptor (Homo sapiens) (P43119 whole entry): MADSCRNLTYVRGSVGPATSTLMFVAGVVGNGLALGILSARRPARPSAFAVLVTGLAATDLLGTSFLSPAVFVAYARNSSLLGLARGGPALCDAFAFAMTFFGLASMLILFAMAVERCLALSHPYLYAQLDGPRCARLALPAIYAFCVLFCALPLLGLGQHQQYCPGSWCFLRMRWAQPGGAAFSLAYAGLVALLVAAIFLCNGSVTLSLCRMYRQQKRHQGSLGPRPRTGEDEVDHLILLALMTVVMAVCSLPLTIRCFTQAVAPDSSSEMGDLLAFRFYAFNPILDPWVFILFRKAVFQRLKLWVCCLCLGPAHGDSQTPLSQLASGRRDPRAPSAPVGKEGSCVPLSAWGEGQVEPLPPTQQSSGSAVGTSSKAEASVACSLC

Homo sapiens [7] = species: Homo sapiens; experiment: Selectivity index, ratio of KB for IP receptor (unknown origin) to KB for EP2 receptor (unknown origin)
C6 = experiment: (§1) Cytotoxicity against rat C6 cells; type: cell-based; conditions: c6
EP2 receptor = experiment: Therapeutic index, ratio of CC50 for rat C6 cells to KB for EP2 receptor (unknown origin); type: cell-based; conditions: read-out: TI
[8] = Metabolic stability of the compound in human liver microsomes assessed as compound remaining at 10 uM after 15 mins; type: ADME; conditions: read-out: Stability
[9] = Metabolic stability of the compound in human liver microsomes assessed as compound remaining at 10 uM after 30 mins; type: ADME; conditions: read-out: Stability
[10] = Metabolic stability of the compound in human liver microsomes assessed as compound remaining at 10 uM after 60 mins; type: ADME; conditions: read-out: Stability
[11] = Metabolic stability of the compound in mouse liver microsomes assessed as compound remaining at 10 uM after 15 mins; type: ADME; conditions: read-out: Stability
[12] = Metabolic stability of the compound in mouse liver microsomes assessed as compound remaining at 10 uM after 30 mins; type: ADME; conditions: read-out: Stability
[13] = Metabolic stability of the compound in mouse liver microsomes assessed as compound remaining at 10 uM after 60 mins; type: ADME; conditions: read-out: Stability
[14] = Aqueous solubility of the compound by nephelometry method; type: physicochemical; conditions: buffer
[15] = as §1; type: cell-based; conditions: C6 cells
[16] = biological target: Prostaglandin E2 receptor EP2 subtype (Homo sapiens) (UniProt P43116); experiment: Competitive antagonist activity at human EP2 receptor assessed as inhibition of PGE2-induced response

Sequence of Prostaglandin E2 receptor EP2 subtype (Homo sapiens) (P43116 whole entry): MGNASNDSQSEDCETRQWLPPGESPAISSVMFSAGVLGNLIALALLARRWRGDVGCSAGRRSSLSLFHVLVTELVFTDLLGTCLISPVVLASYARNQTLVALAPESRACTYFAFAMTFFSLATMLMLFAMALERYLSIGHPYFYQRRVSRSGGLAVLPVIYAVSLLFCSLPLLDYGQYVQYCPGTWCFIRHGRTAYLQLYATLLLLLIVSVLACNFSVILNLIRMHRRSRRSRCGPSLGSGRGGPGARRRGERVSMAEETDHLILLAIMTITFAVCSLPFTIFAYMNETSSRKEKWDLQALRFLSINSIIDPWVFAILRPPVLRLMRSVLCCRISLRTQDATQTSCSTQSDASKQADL

Row | SMILES | Kb [1] [µM] | Kb [2] [µM] | Ratio (Homo sapiens [3]) | Kb [4] [µM] | Ratio (Homo sapiens [5]) | Kb [6] [µM] | Ratio (Homo sapiens [7]) | remaining at […], 10 µM [8] [%] | remaining at 0.5 h, 10 µM [9] [%] | remaining at 1 h, 10 µM [10] [%] | remaining at […], 10 µM [11] [%] | remaining at 0.5 h, 10 µM [12] [%] | remaining at 1 h, 10 µM [13] [%] | solubility kinetic [14] [µM] | Kb [16] [µM] | CC50 (C6) [µM] | selectivity ratio (EP2 receptor) | CC50 [15] [µM]
1 | Cc1cc2ccccc2n1CCNC(=O)c1ccc2c(c1)n(C)c(=O)n2C | 0.0209 | 36.1 | 1730 | 6.29 | 300 | 25.2 | 1200 | – | – | – | – | – | – | – | – | 154 | 7370 | –
2 | Cc1[nH]c2ccccc2c1CCNC(=O)c1ccc(N2CCOCC2)cc1 | – | 75.6 | – | 7.79 | – | 85 | – | 75 | 58 | 40 | 37 | 10 | 0.5 | < 25 | – | 311 | 10900 | –
3 | Cc1cc2ccccc2n1CCNC(=O)c1ccc(N2CCOCC2)c(F)c1 | 0.0257 | 14.5 | 565 | 2.2 | 85 | 5.6 | 217 | – | – | – | – | – | – | – | – | – | > 19400 | > 500
4 | Cc1[nH]c2ccccc2c1CCNC(=O)c1ccc(N(C)C)cc1 | 0.0108 | 16.4 | – | 3.61 | – | 63.1 | – | 34 | 17 | 4 | < 1 | 0 | 0 | < 25 | – | 320 | – | –
5 | Cc1cc2ccccc2n1CCNC(=O)c1ccc(N2CCOCC2)cc1 | 0.0096 | 21 | 2190 | 5.21 | 533 | 1.98 | 206 | 58 | 38 | 22 | 8 | 5 | 0 | 67 (≈ 24.4 µg/mL) | 0.0161 | 289 | 30100 | –
6 | Cc1cc2ccccc2n1CCNC(=O)c1ccc(N2CCCCCC2)cc1 | 0.0226 | 23.6 | 1040 | 7.72 | 342 | 8.5 | 375 | 66 | 64 | 28 | 49 | 37 | 12 | < 25 | – | 327 | 14500 | –
7 | Cc1cc2ccccc2n1CCNC(=O)c1ccc(N2CCC(O)CC2)cc1 | 0.0268 | 70.3 | 2620 | 4.62 | 172 | 18.1 | 675 | 66 | 49 | 31 | 35 | 12 | 2 | 160 (≈ 60.4 µg/mL) | – | 163 | 6080 | –
8 | Cc1cc2ccccc2n1CCNC(=O)c1ccc(N2CCC(C(=O)O)CC2)cc1 | 0.0897 | – | – | – | – | – | – | 97 | 97 | 95 | 97 | 92 | 86 | > 750 | 0.097 | – | – | –
9 | Cc1cc2ccccc2n1CCNC(=O)c1ccc(N2CCN(C)CC2)c(F)c1 | 0.045 | 4.76 | 106 | 0.98 | 22 | 64 | 1420 | – | – | – | – | – | – | – | – | 300 | 6660 | –

More lines, main results first:

Row | Kb [1] [µM] | Kb [2] [µM] | Ratio (Homo sapiens [3]) | Kb [4] [µM] | Ratio (Homo sapiens [5]) | Kb [6] [µM] | Ratio (Homo sapiens [7]) | remaining at […], 10 µM [8] [%] | remaining at 0.5 h, 10 µM [9] [%] | remaining at 1 h, 10 µM [10] [%] | remaining at […], 10 µM [11] [%] | remaining at 0.5 h, 10 µM [12] [%] | remaining at 1 h, 10 µM [13] [%] | solubility kinetic [14] [µM] | Kb [16] [µM] | SMILES | CC50 (C6) [µM] | selectivity ratio (EP2 receptor) | CC50 [15] [µM]
10 | 0.0247 | 28.7 | 1160 | > 10 | > 516 | 14.2 | 570 | 22 | 12 | 1.4 | 52 | 32 | 18 | < 25 | – | Cc1cc2ccccc2n1CCNC(=O)c1ccc(N2CCCC2)cc1 | 337 | 16100 | –
11 | 0.0119 | 15.5 | 1320 | 3.55 | 298 | 1.12 | 95 | 40 | 20 | 5 | 30 | 26 | 6 | < 25 | – | CCCN(CCC)c1ccc(C(=O)NCCn2c(C)cc3ccccc32)cc1 | 332 | 28100 | –
12 | 0.0027 | 31.3 | 11600 | 3.19 | 1220 | 8 | 2960 | 19 | 9 | 4 | < 14 | 9 | 3 | < 25 | 0.0175 | CCN(CC)c1ccc(C(=O)NCCn2c(C)cc3ccccc32)cc1 | 320 | 119000 | –
13 | 0.0094 | 30.2 | 3210 | 2.57 | 273 | 3.4 | 360 | 67 | 42 | 21 | 24 | 18 | 7 | < 25 | – | Cc1cc2ccccc2n1CCNC(=O)c1ccc(N2CCCCC2)cc1 | 315 | 33500 | –

Source: ChEMBL document CHEMBL3286257, “Development of second generation EP2 antagonists with high selectivity” (Eur J Med Chem, 2014)
